{
  "source": "patent US11980185B2",
  "about": "“Bioflavonoid compositions and their use for water purification and food preservation” (Citrox Biosciences Limited, priority 2018, dated 2024)",
  "key": {"[1]": {"tested_on": "Streptococcus mutans", "assay": "Inhibition zone assay on BHI agar plate", "assay_type": "cell-based", "conditions": "48 h at 37° C. anaerobe", "protocol": "The antibacterial activity of ε-polylysine was semi-quantitatively assessed in a inhibition zone assay. 0.1 mL of a confluent Streptococcus mutans culture was spread over a Brain Heart Infusion (BHI) agar plate. Filter platelets (5 mm diameter) soaked with 0.01 mL substance were applied on plate. Plates were incubated 48 h at 37° C. under anaerobe conditions. The diameter of outer limit of the inhibition zones were measured, the diameter of the platelet deduced and the half result considered the radius of inhibition rings. Concentrations were tested in triplicate and their results averaged."}, "[2]": {"tested_on": "Escherichia coli", "assay": "Direct exposure growth inhibition of mini cultures by turbidity (MIC)", "assay_type": "cell-based", "conditions": "5 hours at 37° C.", "description": "Growth inhibition was monitored by measuring turbidity of mini cultures after 5 hours of aerobe incubation at 37° C. under agitation. Solutions were diluted to the half in cascade."}, "[3]": {"tested_on": "S. mutans", "assay": "Short exposure assay (bactericidal effect)", "assay_type": "cell-based, Streptococcus mutans", "conditions": "0.05%, 10 minutes exposure, 5000 Colony Forming Units", "protocol": "The short-term antibacterial activity of Citrox was semi-quantitatively assessed in a short exposure assay. A S. mutans culture, diluted in order to contain 5000 Colony Forming Units, was incubated for 10 minutes in presence of the antibacterial substance and extemporarily plated onto a BHI agar plate. Plates were incubated at 37° C. under anaerobe conditions and colony counted. […] Citrox 0.5% reduced the count of CFU to the half (<3000 CFU)."}, "[4]": {"tested_on": "chloroquine-sensitive Plasmodium chabaudi", "assay": "Malaria infection in mice", "assay_type": "in vivo", "conditions": "20 to 40 days post-treatment"}, "[5]": {"tested_on": "Escherichia coli", "assay": "Pretreatment of high binding plates, growth inhibition by turbidity", "assay_type": "cell-based", "protocol": "High Binding plates were pre-treated with 0.1 mL of pure Citrox/ε-Polylysine solutions incubated 60′ at room temperature. The concentrations of Citrox range from 0.06% to 4%. The ε-Polylysine concentrations range from 30 mg/L to 120 mg/L. The wells have been emptied and rinsed with 0.2 mL bi-distilled water. 0.2 mL of a diluted Escherichia coli culture (turbidity: 5 mOD at 600 nm) were given to the pre-treated wells and incubated for 3 hours at 37° C. Turbidity were measured at 600 nm and percentage of growth inhibition in comparison to untreated well calculated (FIG. 1)."}, "[6]": {"molecular_target": "Glucose oxidase (Aspergillus niger, UniProt P13006)", "sequence (P13006 17-605)": "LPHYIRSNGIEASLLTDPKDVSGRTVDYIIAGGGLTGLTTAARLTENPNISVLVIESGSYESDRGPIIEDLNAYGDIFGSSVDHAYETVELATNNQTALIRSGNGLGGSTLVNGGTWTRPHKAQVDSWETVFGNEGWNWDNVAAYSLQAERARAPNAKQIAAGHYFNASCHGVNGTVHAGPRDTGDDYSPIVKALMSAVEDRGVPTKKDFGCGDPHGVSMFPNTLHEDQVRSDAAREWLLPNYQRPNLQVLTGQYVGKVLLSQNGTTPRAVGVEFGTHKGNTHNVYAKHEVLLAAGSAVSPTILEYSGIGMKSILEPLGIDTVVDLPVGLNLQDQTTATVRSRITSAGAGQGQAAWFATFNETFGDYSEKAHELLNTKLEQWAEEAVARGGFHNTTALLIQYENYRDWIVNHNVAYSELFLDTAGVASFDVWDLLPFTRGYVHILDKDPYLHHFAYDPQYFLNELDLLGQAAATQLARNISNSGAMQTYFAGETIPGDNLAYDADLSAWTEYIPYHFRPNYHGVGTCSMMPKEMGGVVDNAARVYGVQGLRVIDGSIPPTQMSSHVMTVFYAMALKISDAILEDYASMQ", "assay": "Immobilisation of glucose oxidase onto silicate, residual activity in solution", "conditions": "0.25 mg/mL, 2 mg/mL silicate, artificial saliva buffer, FIG. 3", "protocol": "0.5 mg/mL glucose oxidase enzyme was incubated for 15 minutes at room temperature in an artificial saliva buffer composition including:\nwith 2 mg/mL silicate and 0.25 mg/mL of an amino acid based compound, bovine serum albumin (BSA), lysine or ε-polylysine. The mixture was centrifuged in order to pellet the silicate and the supernatant tested for its glucose oxidase activity in presence of glucose, lactoperoxidase and a chromogen substrate (ABTS). The resulting activities were compared with the enzyme incubated with silicate in absence of an amino acid compound (FIG. 3)."}},
  "data": [
    {"compound": "CCO", "note": "[Ethanol, reference compound]", "values": [
      {"measurement": "Radius of inhibition rings", "setting": "[1]; concentration not given", "value": 5, "unit": "mm"},
      {"measurement": "Minimal inhibitory concentration (MIC)", "setting": "[2]; less than 2% (6% in case of ethanol) of growth, extrapolated from FIG. 2, 1% corresponds to 10 g/L", "value": 12.5, "unit": "%"}
    ]},
    {"compound": "OO", "note": "[Water peroxide, reference compound]", "values": [
      {"measurement": "Radius of inhibition rings", "setting": "[1]; 0.1%", "value": 1.5, "unit": "mm"},
      {"measurement": "Radius of inhibition rings", "setting": "[1]; 1%", "value": 5, "unit": "mm"},
      {"measurement": "colony formation", "setting": "[3]", "value": "complete absence of colony formation"}
    ]},
    {"compound": "CCN(CC)CCCC(C)Nc1ccnc2cc(Cl)ccc12", "note": "(stereo not shown) [chloroquine]", "values": [
      {"measurement": "infection level", "setting": "[4]", "value": "approx. zero infection"}
    ]},
    {"compound": "ε-Polylysine", "values": [
      {"measurement": "highest ε-polylysine concentration that does not affect significantly the antibacterial effect of Citrox pretreatment", "setting": "[5]; plate pretreatment together with Citrox", "value": 30, "unit": "mg/L"},
      {"measurement": "inhibitory effect of pretreatment of a high binding plate", "setting": "[5]; ε-polylysine alone, titers largely above the MIC of direct exposure", "value": "does not yield any inhibitory effect"},
      {"measurement": "Radius of inhibition rings", "setting": "[1]; 10 mg/L", "value": 0.5, "unit": "mm"},
      {"measurement": "Radius of inhibition rings", "setting": "[1]; 100 mg/L", "value": 2.5, "unit": "mm"},
      {"measurement": "Radius of inhibition rings", "setting": "[1]; 1000 mg/L", "value": 6.5, "unit": "mm"},
      {"measurement": "Minimal inhibitory concentration (MIC)", "setting": "[2]; less than 2% of growth vs untreated control, extrapolated from FIG. 2", "value": 4, "unit": "mg/L"},
      {"measurement": "immobilization of Glucose oxidase onto silicate", "setting": "[6]", "value": "promotes immobilization of Glucose oxidase onto silicate"}
    ]}
  ]
}
